From the METLIN SMRT retention time set (Domingo-Almenara et al. 2019)

Assay: gradient 5% acetonitrile 3 min, to 50% in 2 min, to 85% in 15 min, held 3 min, 100 µL/min
Conditions: column: Zorbax Extend-C18 2.1 x 50 mm; eluents: water / acetonitrile, 0.1% formic acid
Outline: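 The mobile phases were water and acetonitrile, each with 0.1% formic acid, pumped at 100 μL/min through a Zorbax Extend-C18 column (2.1 × 50 mm, 1.8 μm). Pure standards were injected as mixtures of ~100 molecules and detected by a quadrupole time-of-flight mass spectrometer in positive and negative ionization mode. Retention time came from computationally picked adduct peaks, each inspected by hand.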

RP-LC retention time | SMILES
755 s | COC(=O)c1ncn2c1C(=O)N(Cc1cccc(Cl)c1)C(C)(C(=O)NCc1ccccc1)C2 (stereo unspecified)
664 s | COc1ccc(C(C)NC(=O)Cc2c[nH]c3ncccc23)cc1OC (stereo unspecified)
880 s | COc1ccc(CC(=O)N2CCC[C@@H]2C(=O)NCc2csc(-c3ccccc3)n2)c(Cl)c1
991 s | COc1ccc(NC(=O)C2CCCN(S(=O)(=O)c3cc(-c4noc(C)n4)cs3)C2)cc1Cl (stereo unspecified)
841 s | COc1ccc(C)cc1NC(=O)Cn1nc2nc(N3CCCC(C)C3)ccn2c1=O (stereo unspecified)
583 s | Cn1cc(S(=O)(=O)N2CCC(C(=O)NCc3ccccn3)CC2)cc1C(=O)N1CCCC1
711 s | CNC(=O)N1CCCN(C2=NS(=O)(=O)C(c3ccc(C)c(C)c3)=C2C)CC1
1040 s | COc1ccc(-c2ccc(=O)n(Cc3nc(-c4ccc(Br)cc4)no3)n2)cc1
824 s | O=C1NCCCCCCN(C(=O)c2ccco2)[C@H]2C[C@H](C(=O)N3CCc4ccccc4C3)C[C@@H]12
655 s | COc1ccc2c(NCCCCCCNc3c4ccccc4nc4cc(OC)ccc34)c3ccccc3nc2c1
795 s | CC(C)OCCCNC(=O)c1cc2n(n1)CCCN(Cc1ccc(F)cc1)C2=O
676 s | CC(C)(C)C(=O)NC1CCN(C(=O)c2ccccc2)C1 (stereo unspecified)
985 s | CCN1C(=O)c2ccccc2Oc2ccc(C(=O)NCC(C)c3ccccc3)cc21 (stereo unspecified)
783 s | CC1CCC2(CC1)NC(=O)N(CC(=O)Nc1ccc3c(c1)OCCO3)C2=O (stereo unspecified)
653 s | CCSc1nnc(NC(=O)Cn2nc(-n3cccn3)ccc2=O)s1
716 s | CCCNc1cc(N2CCC(CCC(=O)NCc3cccc(C)c3)CC2)ncn1
716 s | Cc1ccc(CN2CC(c3nc(CCOCc4ccccc4)no3)C2)s1
1160 s | Cc1ccc(C)c(N2CCN(Cc3nc(-c4ccc(N5CCCCC5)nc4)no3)CC2)c1

RP-LC retention time | SMILES
766 s | O=C(CCc1c[nH]c2ccccc12)N1CCN2CCS(=O)(=O)N(C3CC3)C(=O)C2C1 (stereo unspecified)
602 s | CCN(CC)S(=O)(=O)c1ccc2c(c1)ncn2CCC(=O)N1CCN(c2ccccn2)CC1
812 s | Cc1ccsc1C(=O)N1CCC(c2nc(CCOCC3CC3)no2)C1 (stereo unspecified)
852 s | O=C(NCc1ccco1)c1ccc2c(c1)CCCN2C(=O)c1ccc(Cl)cc1
986 s | CC(=O)Nc1ccc(NC(=S)NC(=O)c2ccc(C(C)(C)C)cc2)cc1
968 s | Cc1sc(NC(=O)c2ccc(Cl)cc2)nc1-c1ccc2c(c1)NC(=O)C(C)O2 (stereo unspecified)
809 s | COC(=O)c1c(NCCc2c[nH]c3ccccc23)c2cc(Cl)ccc2[nH]c1=O
572 s | CCOC(=O)N1CCC(Nc2c(N3CCN(c4ccccn4)CC3)c(=O)c2=O)CC1
1090 s | CC(=O)N1CCN(c2cc(-c3nc(-c4cccc(F)c4)no3)c3ccccc3n2)CC1
1160 s | O=c1c2cnn(-c3ccc(F)cc3)c2ncn1Cc1nc(-c2ccc(OC(F)(F)F)cc2)no1
805 s | O=C(NCCc1c[nH]c2ccc(Cl)cc12)c1cc(-c2cccnc2)nc2ccccc12
951 s | Cc1cccc(OCC(=O)NC2(c3nc(C)no3)CCCCC2)c1
1270 s | Cc1cccc(-c2nnc(-c3nc(N4CCCCC4C)c4ccccc4n3)o2)c1 (stereo unspecified)
850 s | O=C(Nc1ccccc1C(F)(F)F)NC1CCN(c2ccc(F)cc2)C1=O (stereo unspecified)
826 s | COCCNC(=O)C1CCN(c2nccnc2Sc2cccc(C)c2)CC1
710 s | O=C(CSc1nnc(-c2ccc3c(c2)OCCCO3)n1C1CC1)N1CCCC1
733 s | O=C(NC1CCCCC1)N1CCC(c2nc(C3CCOCC3)no2)CC1
627 s | CC1=NOC(C)(CNC(=O)NC(C)(C)C)C1 (stereo unspecified)
